In patent publication US20170037028A1 (BAYER PHARMA AKTIENGESELLSCHAFT, priority 2013, published 2017):

Legend:
Format in all cases: cell-based
GLUT2 = target: T1, GLUT2 (Homo sapiens, UniProt P11168); experiment: Indirect measurement of GLUT2 activity by quantification of intracellular ATP levels (fructose induced ATP increase); details: 10 mM fructose, 1 μM Rotenone, 15 min; CellTiter-Glo ATP readout; read-out: IC50 regarding fructose induced ATP increase (GLUT2 inhibition)
T1 construct: host or cells: DLD1 or CHO-K1
T1 sequence (P11168 1-524): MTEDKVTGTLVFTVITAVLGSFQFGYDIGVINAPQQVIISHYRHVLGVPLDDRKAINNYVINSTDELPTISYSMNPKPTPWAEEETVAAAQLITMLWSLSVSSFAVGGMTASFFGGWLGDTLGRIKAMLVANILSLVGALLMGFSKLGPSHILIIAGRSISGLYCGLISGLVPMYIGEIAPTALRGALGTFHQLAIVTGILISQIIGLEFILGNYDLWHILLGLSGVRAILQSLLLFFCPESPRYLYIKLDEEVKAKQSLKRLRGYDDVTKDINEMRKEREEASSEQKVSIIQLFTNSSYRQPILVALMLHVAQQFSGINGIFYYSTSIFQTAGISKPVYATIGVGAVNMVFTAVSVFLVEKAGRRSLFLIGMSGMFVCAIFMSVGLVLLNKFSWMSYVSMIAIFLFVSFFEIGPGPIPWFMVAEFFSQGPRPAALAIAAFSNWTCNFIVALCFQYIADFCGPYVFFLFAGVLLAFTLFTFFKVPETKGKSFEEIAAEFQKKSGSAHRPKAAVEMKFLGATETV
Text: Indirect Measurement of GLUT1 and GLUT2 Activity by Quantification of Intracellular ATP Levels
It is well known that a combination of small-molecule inhibitors of mitochondrial electron transport chain and glucose catabolism synergistically suppress ATP production and impair cellular viability (Ulanovskaya et al., 2008, 2011; Liu, et al. 2001). We therefore used DLD1 or CHO-K1 cells in combination with an oxidative phosphorylation inhibitor to identify GLUT1 and GLUT2 inhibitors. Cell lines were maintained in DMEM medium supplemented with 10% FCS and 1% Penicillin-Streptomycin solution and 2% Glutamax. The cells were treated with trypsin and seeded into 384 plates at a density of 4000 cells/well. The cells were then cultured overnight in glucose free media containing 1% FCS to reduce intracellular ATP levels. […] The CellTiter-Glo® Luminescent Cell Viability Assay from Promega was then used to measure ATP Levels.

GLUT1 [1] = target: T2, GLUT1 (Homo sapiens, UniProt P11166); experiment: Indirect measurement of GLUT1 activity by quantification of intracellular ATP levels (glucose induced ATP increase); design: endogenous in cells; host or cells: DLD1 or CHO-K1; details: read-out: IC50 regarding glucose induced ATP increase (GLUT1 inhibition)
T2 sequence (P11166 1-492): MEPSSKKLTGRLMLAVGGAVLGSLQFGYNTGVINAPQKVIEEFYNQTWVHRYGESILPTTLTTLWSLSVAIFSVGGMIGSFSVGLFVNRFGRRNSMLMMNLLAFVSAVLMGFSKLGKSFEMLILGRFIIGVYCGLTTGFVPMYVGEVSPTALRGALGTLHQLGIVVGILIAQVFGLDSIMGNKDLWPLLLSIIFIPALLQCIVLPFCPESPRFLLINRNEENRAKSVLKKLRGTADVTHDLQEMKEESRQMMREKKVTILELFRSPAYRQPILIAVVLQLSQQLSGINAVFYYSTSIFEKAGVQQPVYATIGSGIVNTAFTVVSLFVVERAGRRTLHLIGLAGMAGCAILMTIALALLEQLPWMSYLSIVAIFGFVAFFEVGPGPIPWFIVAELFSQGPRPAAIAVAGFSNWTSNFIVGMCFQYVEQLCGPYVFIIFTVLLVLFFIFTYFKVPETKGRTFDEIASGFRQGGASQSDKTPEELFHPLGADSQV
Outline: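 DLD1 or CHO-K1 cells were starved overnight in glucose-free medium with 1% FCS, then combined with an oxidative phosphorylation inhibitor. GLUT1 activity was read as glucose-induced ATP increase, GLUT2 as fructose-induced. Intracellular ATP was quantified by CellTiter-Glo luminescence.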

GLUT1 [2] = target: T2, GLUT1; experiment: 2-deoxy-D-glucose (3H) uptake assay, GLUT1 inhibition in cell lines; details: H460 cell line; 3H-2-deoxy-D-glucose uptake; read-out: IC50 regarding GLUT1 inhibition
Description: Cells (e.g. H460 or CHO-K1) were cultured under standard conditions. 10000 cells per well were seeded in clear 96 well tissue culture isoplate plates and cultured overnight (PerkinElmer, 1450-516) under standard conditions. Culture medium was removed and cells were washed two times with 100 μL KRP buffer and then incubated for 45 minutes at 37° C. (KRP buffer: 10 mM sodium hydrogen phosphate, 130 mM sodium chloride, 5 mM potassium chloride, 1.3 mM magnesium sulfate, 1.3 mM calcium chloride (pH 7.5), 50 mM HEPES (pH 7.5), 4.7 mM potassium chloride, 1.25 mM magnesium sulfate, 1.25 mM calcium chloride) each. KRP wash buffer was removed and compound 126 (diluted in KRP buffer) was added and incubated for 30 minutes at 37° C. 200 nM radioligand (radioligand 2[1,2] 3H-Deoxy D-Glucose in KRP buffer) were added and incubated for 5 minutes at room temperature. The supernatant was removed and cells were washed with 100 μL ice-cold KRP for two times each. 25 μL of Lysis buffer (1% Triton-X, 0.5N sodium hydroxide) were added and incubated at room temperature for 5 minutes. 75 μL scintillation solution (Microscint-20, PerkinElmer) were added and the plates were shaken for 1 minute. The plates were incubated for 3 h at room temperature and the counts were determined by using a Wallace MicroBeta counter (60 seconds per well).

Row | SMILES | IC50 (GLUT2) [nM] | IC50 (GLUT1 [1]) [nM] | IC50 (GLUT1 [2]) [nM]
1 | COc1cc(C(=O)Nc2c(C)nn(Cc3ccc(C#N)cc3)c2C)c2ccccc2n1 [Example 15, N-[1-(4-cyanobenzyl)-3,5-dimethyl-1H-pyrazol-4-yl]-2-methoxyquinoline-4-carboxamide] | 85400 | 11.6 | –
2 | Cc1nn(Cc2ccc(C#N)cn2)c(C)c1NC(=O)c1cc(C(N)=O)nc2cccc(F)c12 [Example 352, N^4-{1-[(5-cyanopyridin-2-yl)methyl]-3,5-dimethyl-1H-pyrazol-4-yl}-5-fluoroquinoline-2,4-dicarboxamide] | 45100 | 2.5 | –
3 | CNC(=O)c1nc(Cn2nc(C(F)(F)F)c(NC(=O)c3cc(C(N)=O)nc4cc(F)c(Cl)cc34)c2C)no1 [Example 1558] | 51200 | 11.9 | –

The remaining compounds from weak to strong by IC50 (GLUT2), led by results:

Row | IC50 (GLUT2) [nM] | IC50 (GLUT1 [1]) [nM] | IC50 (GLUT1 [2]) [nM] | SMILES
4 | 85400 | 4.7 | 15.4 | Cc1c(NC(=O)c2cc(C(N)=O)nc3ccccc23)c(C(F)(F)F)nn1Cc1ccc(C#N)cc1 [Example 126, N^4-[1-(4-cyanobenzyl)-5-methyl-3-(trifluoromethyl)-1H-pyrazol-4-yl]quinoline-2,4-dicarboxamide]
5 | 51200 | 108 | – | Cc1nn(Cc2ccc(CN(C)C)cc2)c(C)c1NC(=O)c1cc(C(N)=O)nc2cc(F)ccc12 [Example 388, N^4-(1-{4-[(dimethylamino)methyl]benzyl}-3,5-dimethyl-1H-pyrazol-4-yl)-7-fluoroquinoline-2,4-dicarboxamide]
6 | 36100 | 64.1 | – | CCc1noc(Cn2nc(C)c(NC(=O)c3cc(C(N)=O)nc4ccccc34)c2C)n1 [Example 1571]
7 | 18400 | 10 | – | CCS(=O)(=O)N1CCC(Cn2nc(C)c(NC(=O)c3cc(C(N)=O)nc4cc(F)c(Cl)cc34)c2C)CC1 [Example 415, 6-chloro-N^4-(1-{[1-(ethylsulfonyl)piperidin-4-yl]methyl}-3,5-dimethyl-1H-pyrazol-4-yl)-7-fluoroquinoline-2,4-dicarboxamide]
